Data reported in patent publication US20100240700A1, “PROPHYLACTIC PRETREATMENT WITH ANTIOXIDANTS” (MITOS PHARMACEUTICALS, INC., priority 2003, published 2010).

Test system: cerebral ischemia (infarcts) in patients with aneurysmal subarachnoid hemorrhage
Test: clinical study of Tempol on prevention of cerebral ischemia during treatment of aneurysms (MRI-DWI infarct count and size)
Format: in vivo
Conditions: human patients, 1-300 mg/kg orally before and after surgical or endovascular treatment; MRI-DWI 1-3 days and 6 weeks post-treatment
Procedure: This example describes a clinical study to determine the effect of Tempol on the prevention of cerebral ischemia during treatment of aneurysms in human patients that have bled. Patients, having suffered aneurysmal subarachnoid hemorrhaging, undergo magnetic resonance imaging (MRI-DWI) to count the number of infarcts and measure their size. Either 1-300 mg/kg of Tempol or a placebo are orally administered to the human patients. Patients undergo treatment for subarachnoid hemorrhaging (e.g., surgical or endovascular). After surgery, 1-300 mg/kg of Tempol or a placebo are orally administered to the patients. 1-3 days post-treatment, follow up MRI-DWI is used to count and measure the size of infarcts. The number and size of the infarcts is also measured 6 weeks post-treatment using MRI-DWI.

CC1(C)CC(O)CC(C)(C)N1[O] [Tempol, 4-hydroxy-2,2,6,6-tetramethylpiperidine-1-oxyl]
number of infarcts (MRI-DWI) versus placebo: fewer | size of infarcts (MRI-DWI) versus placebo: smaller sized
